Experimental data published in patent US8309546B2, “Morpholinopurine derivatives” (Daiichi Sankyo Company, Limited, priority 2008, dated 2012).

How the values were obtained:
[1] = biological target: PI3Kα (Homo sapiens, UniProt P42336); assay: PI3K kinase activity inhibition assay; type: biochemical; details: Kinase-Glo Plus ATP detection, read-out: IC50 against PI3K
Outline: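 PI3Kα (50 nM solution) was reacted with 30 μM ATP and 45 μM PIP2 solutions, each in HEPES pH 7.4 with MgCl2 and DTT, for 2 h at room temperature. Remaining ATP was measured by Kinase-Glo Plus luminescence, and inhibition was derived from ATP consumed. IC50 was taken from curve fitting of the serial dilutions.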

[2] = test system: human colon cancer cell strain HT29; assay: Cell growth inhibition test (MTT), HT29; type: cell-based; details: HT-29, 72 h, HT29, 3 days culture, read-out: concentration exhibiting anti-cell effect (GI50)
Outline: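 Cells were seeded per well (AN3CA 5000, IGROV1 1000, HT29 5000), dosed next day and cultured 3 days at 37° C in 5% CO2. Viable cells were read by MTT (4 h, DMSO-solubilized formazan, A540). GI50 was interpolated between the two concentrations bracketing 50% growth rate (T/C %, corrected for day-0 absorbance).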

[3] = test system: human endometrial cancer cell strain AN3CA tumor; assay: Anti-tumor effect assay using mouse subcutaneous transplantation model; type: in vivo, female nude mouse; details: AN3-CA, oral, tumor weight vs negative control, read-out: Anti-tumor effect (tumor growth inhibition rate); for inhibition in vivo at 5 mg/kg/day / inhibition in vivo at 10 mg/kg/day / inhibition in vivo at 2.5 mg/kg/day: 8 or 5 consecutive days depending on compound; for inhibition in vivo at 20 mg/kg/day: consecutive days
Experimental: A tumor section was prepared from a human endometrial cancer cell strain AN3CA tumor mass formed in a female nude mouse as a subcutaneously transplanted tumor and then a xenograft model was prepared by transplanting the tumor section into female nude mouse. Tumor-bearing mice having an estimated tumor volume (long diameter×short diameter×short diameter/2) of 80 to 200 mm^3 were divided, so that there should be no significant difference in the mean estimated tumor volume and body weight as compared with the negative control group to perform a test. The test compound was orally administered at a predetermined dose for 8 consecutive days. On the following day of the final administration day, tumor-bearing mice were anesthetized and exsanguinated to death and a tumor mass was isolated to measure tumor weight (the compounds of Examples 1, 3, 6, 8, 11, 12, and 14). Furthermore, as a similar test, the test compound was orally administered for 5 consecutive days, animals were sacrificed on the final administration day, and tumor weight was measured (the compounds of Examples 60, 63, 75, 77, 79, 89, 92, 107, 108, 109, 110, and 127).
In all the tests, anti-tumor effect was calculated by the following formula. {1−(tumor weight in compound treatment group/tumor weight in negative control group)}×100

Chain of PI3Kα (P42336 whole entry, species assumed): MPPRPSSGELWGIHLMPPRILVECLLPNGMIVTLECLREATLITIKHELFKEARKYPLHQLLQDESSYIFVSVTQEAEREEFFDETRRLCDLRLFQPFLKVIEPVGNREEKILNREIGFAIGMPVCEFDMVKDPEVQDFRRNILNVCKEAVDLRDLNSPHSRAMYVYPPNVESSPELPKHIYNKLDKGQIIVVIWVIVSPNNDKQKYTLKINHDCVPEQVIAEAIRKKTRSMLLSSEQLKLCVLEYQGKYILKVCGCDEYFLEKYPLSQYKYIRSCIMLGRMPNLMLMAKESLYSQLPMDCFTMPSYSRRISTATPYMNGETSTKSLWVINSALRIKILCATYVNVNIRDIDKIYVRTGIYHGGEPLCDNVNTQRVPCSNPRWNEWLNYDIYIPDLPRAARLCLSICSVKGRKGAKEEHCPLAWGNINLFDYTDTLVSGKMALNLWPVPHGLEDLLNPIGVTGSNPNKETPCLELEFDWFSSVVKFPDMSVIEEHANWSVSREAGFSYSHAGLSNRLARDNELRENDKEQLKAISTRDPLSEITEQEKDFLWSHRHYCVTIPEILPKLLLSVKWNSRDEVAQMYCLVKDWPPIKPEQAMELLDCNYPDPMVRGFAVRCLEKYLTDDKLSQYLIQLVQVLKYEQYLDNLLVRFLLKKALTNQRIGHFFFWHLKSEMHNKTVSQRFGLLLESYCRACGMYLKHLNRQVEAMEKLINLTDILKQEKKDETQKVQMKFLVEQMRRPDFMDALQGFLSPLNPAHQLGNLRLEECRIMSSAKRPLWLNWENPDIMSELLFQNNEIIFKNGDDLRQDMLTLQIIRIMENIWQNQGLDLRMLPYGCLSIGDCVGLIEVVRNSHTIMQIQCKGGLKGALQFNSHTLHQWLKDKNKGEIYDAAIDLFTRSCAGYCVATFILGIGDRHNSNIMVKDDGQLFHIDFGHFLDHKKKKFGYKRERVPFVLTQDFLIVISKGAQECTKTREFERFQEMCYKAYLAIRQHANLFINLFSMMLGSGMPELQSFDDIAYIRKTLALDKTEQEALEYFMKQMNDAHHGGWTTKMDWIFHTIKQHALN
Chain of PI3Kα (P27986 whole entry partner, species assumed): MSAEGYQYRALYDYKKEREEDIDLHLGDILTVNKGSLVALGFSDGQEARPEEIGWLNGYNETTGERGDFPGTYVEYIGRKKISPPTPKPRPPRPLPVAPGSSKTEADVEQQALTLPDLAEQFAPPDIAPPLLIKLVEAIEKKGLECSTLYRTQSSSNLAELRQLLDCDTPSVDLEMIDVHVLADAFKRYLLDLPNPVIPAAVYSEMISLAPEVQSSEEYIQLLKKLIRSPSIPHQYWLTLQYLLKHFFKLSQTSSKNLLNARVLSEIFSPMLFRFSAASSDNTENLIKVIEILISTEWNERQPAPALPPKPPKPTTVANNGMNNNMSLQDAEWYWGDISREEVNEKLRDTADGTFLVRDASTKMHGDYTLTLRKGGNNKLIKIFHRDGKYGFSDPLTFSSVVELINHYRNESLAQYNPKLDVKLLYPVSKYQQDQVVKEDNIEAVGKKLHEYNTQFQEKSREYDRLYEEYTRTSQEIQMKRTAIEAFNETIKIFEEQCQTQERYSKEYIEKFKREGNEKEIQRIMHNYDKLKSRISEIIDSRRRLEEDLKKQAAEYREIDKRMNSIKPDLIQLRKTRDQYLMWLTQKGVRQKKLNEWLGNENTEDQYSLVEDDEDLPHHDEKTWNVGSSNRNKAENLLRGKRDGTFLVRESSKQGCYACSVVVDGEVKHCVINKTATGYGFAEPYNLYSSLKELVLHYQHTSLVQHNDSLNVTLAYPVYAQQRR

SMILES | IC50 [1] [nM] | GI50 [2] [nM] | inhibition in vivo at 5 mg/kg/day [3] [%] | inhibition in vivo at 10 mg/kg/day [3] [%] | also measured
CC(C)Cn1c(N2CCN(S(C)(=O)=O)[C@@H](C)C2)nc2c(N3CCOCC3)nc(-c3cnc(N)nc3)nc21 [Example 53, 5-{9-Isobutyl-8-[(3S)-3-methyl-4-(methylsulfonyl)piperazin-1-yl]-6-morpholin-4-yl-9H-purin-2-yl}pyrimidin-2-amine] | 10 to 20 | ≤ 5000 | 45 | 68 | –
CC(C)Cn1c(N2CCN(S(C)(=O)=O)[C@H](C)C2)nc2c(N3CCOCC3)nc(-c3cnc(N)nc3)nc21 [Example 54, 5-{9-Isobutyl-8-[(3R)-3-methyl-4-(methylsulfonyl)piperazin-1-yl]-6-morpholin-4-yl-9H-purin-2-yl}pyrimidin-2-amine] | 10 to 20 | ≤ 5000 | – | 74 | inhibition in vivo at 20 mg/kg/day [3]: 82%
CC(C)Cn1c(N2CCN(C(=O)CN(C)C)CC2)nc2c(N3CCOCC3)nc(-c3cnc(N)nc3)nc21 [Example 55, 5-(8-{4-[(Dimethylamino)acetyl]piperazin-1-yl}-9-isobutyl-6-morpholin-4-yl-9H-purin-2-yl)pyrimidin-2-amine] | < 10 | ≤ 5000 | – | 32 | inhibition in vivo at 20 mg/kg/day [3]: 59%
CC(=O)N1CCN(c2nc3c(N4CCOCC4)nc(-c4cnc(N)nc4)nc3n2CC(F)(F)F)C[C@H]1C [Example 60, 5-{8-[(3R)-4-Acetyl-3-methylpiperazin-1-yl]-6-morpholin-4-yl-9-(2,2,2-trifluoroethyl)-9H-purin-2-yl}pyrimidin-2-amine] | < 10 | ≤ 5000 | – | – | inhibition in vivo at 1.5 mg/kg/day ([3]; 120 h, 1.5 mg/kg/day, 5 consecutive days): 64%; inhibition in vivo at 6 mg/kg/day ([3]; 120 h, 6 mg/kg/day, 5 consecutive days): 89%
CC(=O)N1CCN(c2nc3c(N4CCOCC4)nc(-c4cnc(N)nc4)nc3n2CC(F)(F)F)C[C@@H]1C [Example 63, 5-{8-[(3S)-4-Acetyl-3-methylpiperazin-1-yl]-6-morpholin-4-yl-9-(2,2,2-trifluoroethyl)-9H-purin-2-yl}pyrimidin-2-amine] | < 10 | ≤ 5000 | – | – | inhibition in vivo at 0.875 mg/kg/day ([3]; 120 h, 0.875 mg/kg/day, 5 consecutive days): 52%; inhibition in vivo at 3.5 mg/kg/day ([3]; 120 h, 3.5 mg/kg/day, 5 consecutive days): 88%
CC[C@H]1CN(c2nc3c(N4CCOCC4)nc(-c4cnc(N)nc4)nc3n2CC(F)(F)F)CCN1C(C)=O [Example 75, 5-{8-[(3S)-4-Acetyl-3-ethylpiperazin-1-yl]-6-morpholin-4-yl-9-(2,2,2-trifluoroethyl)-9H-purin-2-yl}pyrimidin-2-amine] | < 10 | ≤ 5000 | – | – | inhibition in vivo at 1.875 mg/kg/day ([3]; 120 h, 1.875 mg/kg/day, 5 consecutive days): 44%; inhibition in vivo at 7.5 mg/kg/day ([3]; 120 h, 7.5 mg/kg/day, 5 consecutive days): 77%
CC[C@H]1CN(c2nc3c(N4CCOCC4)nc(-c4cnc(N)nc4)nc3n2CC(F)(F)F)CCN1C(=O)[C@H](C)O [Example 77, (2S)-1-{(2S)-4-[2-(2-Aminopyrimidin-5-yl)-6-morpholin-4-yl-9-(2,2,2-trifluoroethyl)-9H-purin-8-yl]-2-ethylpiperazin-1-yl}-1-oxopropan-2-ol] | < 10 | ≤ 5000 | – | – | inhibition in vivo at 3.75 mg/kg/day ([3]; 120 h, 3.75 mg/kg/day, 5 consecutive days): 47%; inhibition in vivo at 15 mg/kg/day ([3]; 120 h, 15 mg/kg/day, 5 consecutive days): 84%
CC[C@@H]1CN(c2nc3c(N4CCOCC4)nc(-c4cnc(N)nc4)nc3n2CC(F)(F)F)CCN1C(=O)[C@H](C)O [Example 79] | < 10 | ≤ 5000 | – | 59 | inhibition in vivo at 2.5 mg/kg/day [3]: 27%
CC(C)Cn1c(N2CCN(C(=O)C[C@@H](C)O)CC2)nc2c(N3CCOCC3)nc(-c3cnc(N)nc3)nc21 [Example 81, (2R)-4-{4-[2-(2-Aminopyrimidin-5-yl)-9-isobutyl-6-morpholin-4-yl-9H-purin-8-yl]piperazin-1-yl}-4-oxobutan-2-ol] | < 10 | ≤ 5000 | 37 | 74 | –
C[C@H](O)C(=O)N1CCN(c2nc3c(N4CCOCC4)nc(-c4cnc(N)nc4)nc3n2CC2CC2)CC1 [Example 88, (2S)-1-{4-[2-(2-Aminopyrimidin-5-yl)-9-(cyclopropylmethyl)-6-morpholin-4-yl-9H-purin-8-yl]piperazin-1-yl}-1-oxopropan-2-ol] | < 10 | ≤ 5000 | 30 | 54 | –
CC(C)Cn1c(N2CCN(C(=O)CO)CC2)nc2c(N3CCOCC3)nc(-c3cnc(N)nc3)nc21 [Example 89, 2-{4-[2-(2-Aminopyrimidin-5-yl)-9-isobutyl-6-morpholin-4-yl-9H-purin-8-yl]piperazin-1-yl}-2-oxoethanol] | < 10 | ≤ 5000 | 56 | 69 | –
CC(C)Cn1c(N2CCN(C=O)CC2)nc2c(N3CCOCC3)nc(-c3cnc(N)nc3)nc21 [Example 90, 4-[2-(2-Aminopyrimidin-5-yl)-9-isobutyl-6-morpholin-4-yl-9H-purin-8-yl]piperazine-1-carboaldehyde] | 10 to 20 | ≤ 5000 | 40 | 80 | –
C[C@H](O)C(=O)N1CCN(c2nc3c(N4CCOCC4)nc(-c4cnc(N)nc4)nc3n2CC2CC2)C[C@@H]1C [Example 92, (2S)-1-{(2S)-4-[2-(2-Aminopyrimidin-5-yl)-9-(cyclopropylmethyl)-6-morpholin-4-yl-9H-purin-8-yl]-2-methylpiperazin-1-yl}-1-oxopropan-2-ol] | 10 to 20 | ≤ 5000 | 52 | 61 | –
CC(C)Cn1c(N2CCN(C(=O)[C@@H](C)O)CC2)nc2c(N3CCOCC3)nc(-c3cnc(N)nc3)nc21 [Example 93] | < 10 | ≤ 5000 | 54 | – | inhibition in vivo at 2.5 mg/kg/day [3]: 42%
C[C@H](O)C(=O)N1CCN(c2nc3c(N4CCOCC4)nc(-c4cnc(N)nc4)nc3n2CC2CC2)C[C@H]1C [Example 95, (2S)-1-{(2R)-4-[2-(2-Aminopyrimidin-5-yl)-9-(cyclopropylmethyl)-6-morpholin-4-yl-9H-purin-8-yl]-2-methylpiperazin-1-yl}-1-oxopropan-2-ol] | 10 to 20 | ≤ 5000 | 44 | 62 | –
CC(C)Cn1c(N2CCN(C=O)[C@H](C)C2)nc2c(N3CCOCC3)nc(-c3cnc(N)nc3)nc21 [Example 100, (2R)-4-[2-(2-Aminopyrimidin-5-yl)-9-isobutyl-6-morpholin-4-yl-9H-purin-8-yl]-2-methylpiperazine-1-carboaldehyde] | < 10 | ≤ 5000 | 62 | – | inhibition in vivo at 2.5 mg/kg/day [3]: 53%
CC(=O)N1CCN(c2nc3c(N4CCOCC4)nc(-c4cnc(N)nc4)nc3n2CC(C)C)C[C@@H]1C [Example 101, 5-{8-[(3S)-4-Acetyl-3-methylpiperazin-1-yl]-9-isobutyl-6-morpholin-4-yl-9H-purin-2-yl}pyrimidin-2-amine] | 10 to 20 | ≤ 5000 | 69 | – | inhibition in vivo at 2.5 mg/kg/day [3]: 42%
CC(C)Cn1c(N2CCN(C=O)[C@@H](C)C2)nc2c(N3CCOCC3)nc(-c3cnc(N)nc3)nc21 [Example 102, (2S)-4-[2-(2-Aminopyrimidin-5-yl)-9-isobutyl-6-morpholin-4-yl-9H-purin-8-yl]-2-methylpiperazine-1-carboaldehyde] | < 10 | ≤ 5000 | 64 | – | inhibition in vivo at 2.5 mg/kg/day [3]: 54%
